Reference: patent US6531610B1 (Abbott Laboratories, priority 1989, dated 2003)
Like-named read-outs stand apart in the source and are kept apart here.

Test system: HIV-13B in MT4 cells
Assay: Antiviral activity: inhibition of the cytopathic effect of HIV in MT4 cells
Type: cell-based, HIV-1
[1] = Human immunodeficiency virus 1, MT4
[2] = Human immunodeficiency virus 1, MT4, read-out: IC50
[3] = concentration giving 50% inhibition of the cytopathic effect of HIV, HIV-13B in MT4 cells, read-out: IC50

## CCCN(Cc1csc(C(C)C)n1)C(=O)N[C@@H](C)C(=O)N[C@@H](Cc1ccccc1)C[C@H](O)[C@H](Cc1ccccc1)NC(=O)OCc1cncs1 [Example 54]
[1]
  IC50: 110 to 170 nM

## CC(C)c1nc(CN(C)C(=O)N[C@H](C(=O)N[C@@H](Cc2ccccc2)C[C@H](O)[C@H](Cc2ccccc2)NC(=O)OCc2ccno2)C(C)C)co1 [Example 27, (2S,3S,5S)-5-(N-(N-((N-Methyl-N-((2-isopropyl-4-oxazolyl)methyl)amino)carbonyl)valinyl)amino)-2-(N-((5-isoxazolyl)methoxycarbonyl)amino)-1,6-diphenyl-3-hydroxyhexane]
[2]
  IC50: 11 to 12 nM

## Cc1ncc(COC(=O)N[C@@H](Cc2ccccc2)C[C@H](O)[C@H](Cc2ccccc2)NC(=O)[C@@H](NC(=O)N(C)Cc2csc(C(C)C)n2)C(C)C)s1 [Example 39, (2S,3S,5S)-2-(N-(N-((N-Methyl-N-((2-isopropyl-4-thiazolyl)methyl)amino)carbonyl)valinyl)amino)-5-(N-((2-methyl-5-thiazolyl)methoxycarbonyl)amino)-1,6-diphenyl-3-hydroxyhexane]
[2]
  IC50: 73 to 77 nM

## CC(C)[C@H](NC(=O)N(C)Cc1csc(C2CCC2)n1)C(=O)N[C@@H](Cc1ccccc1)C[C@H](O)[C@H](Cc1ccccc1)NC(=O)OCc1cncs1 [Example 52, (2S,3S,5S)-5-(N-(N-((N-Methyl-N-((2-cyclobutyl-4-thiazolyl)methyl)amino)carbonyl)valinyl)amino)-2-(N-((5-thiazolyl)methoxycarbonyl)amino)-1,6-diphenyl-3-hydroxyhexane]
[2]
  IC50: 35 to 42 nM

## CC(C)c1nc(CCN(C)C(=O)N[C@H](C(=O)N[C@@H](Cc2ccccc2)C[C@H](O)[C@H](Cc2ccccc2)NC(=O)OCc2cncs2)C(C)C)cs1 [Example 61, (2S,3S,5S)-5-(N-(N-((N-Methyl-N-(2-(2-isopropyl-4-thiazolyl)ethyl)amino)carbonyl)valinyl)amino)-2-(N-((5-thiazolyl)methoxycarbonyl)amino)-1,6-diphenyl-3-hydroxyhexane]
[2]
  IC50: 150 to 220 nM

## CC(C)[C@H](NC(=O)OCc1csc(N2CCOCC2)n1)C(=O)N[C@@H](Cc1ccccc1)C[C@H](O)[C@H](Cc1ccccc1)NC(=O)OCc1cncs1 [Example 11, (2S,3S,5S)-5-(N-(N-((2-(4-Morpholinyl)-4-thiazolyl)methoxycarbonyl)valinyl)amino)-2-(N-((5-thiazolyl)methoxycarbonyl)amino)-1,6-diphenyl-3-hydroxyhexane]
[2]
  IC50: 17 to 132 nM

## CCc1nc(CN(C)C(=O)N[C@H](C(=O)N[C@@H](Cc2ccccc2)C[C@H](O)[C@H](Cc2ccccc2)NC(=O)OCc2cncs2)C(C)C)co1 [Example 41, (2S,3S,5S)-5-(N-(N-((N-Methyl-N-((2-ethyl-4-oxazolyl)methyl)amino)carbonyl)valinyl)amino)-2-(N-((5-thiazolyl)methoxycarbonyl)amino)-1,6-diphenyl-3-hydroxyhexane]
[2]
  IC50: 15 to 20 nM

## CC(C)c1nc(CN(C(=O)N[C@H](C(=O)N[C@@H](Cc2ccccc2)C[C@H](O)[C@H](Cc2ccccc2)NC(=O)OCc2cncs2)C(C)C)C2CC2)cs1 [Example 17, (2S,3S,5S)-5-(N-(N-((N-Cyclopropyl-N-((2-isopropyl-4-thiazolyl)methyl)amino)carbonyl)valinyl)amino)-2-(N-((5-thiazolyl)methoxycarbonyl)amino)-1,6-diphenyl-3-hydroxyhexane]
[2]
  IC50: 230 to 310 nM

## CC(C)c1nc(COC(=O)N[C@@H](C)C(=O)N[C@@H](Cc2ccccc2)C[C@H](O)[C@H](Cc2ccccc2)NC(=O)OCc2cncs2)cs1 [Example 7, (2S,3S,5S)-5-(N-(N-((2-Isopropyl-4-thiazolyl)methoxycarbonyl)alaninyl)amino)-2-(N-((5-thiazolyl)methoxycarbonyl)amino)-1,6-diphenyl-3-hydroxyhexane]
[2]
  IC50: 76 to 131 nM

## CC(C)c1nc(CN(C)C(=O)N[C@H](C(=O)N[C@@H](Cc2ccccc2)C[C@H](O)[C@H](Cc2ccccc2)NC(=O)OCc2cncs2)C(C)C)cs1 [Example 1, (2S,3S,5S)-5-(N-(N-((N-Methyl-N-((2-isopropyl-4-thiazolyl)methyl)amino)carbonyl)valinyl)amino)-2-(N-((5-thiazolyl)methoxycarbonyl)amino)-1,6-diphenyl-3-hydroxyhexane]
[2]
  IC50: 25 to 40 nM

## Cc1nc(CN(C)C(=O)N[C@H](C(=O)N[C@@H](Cc2ccccc2)C[C@H](O)[C@H](Cc2ccccc2)NC(=O)OCc2cncs2)C(C)C)co1 [Example 42, (2S,3S,5S)-5-(N-(N-((N-Methyl-N-((2-methyl-4-oxazolyl)methyl)amino)carbonyl)valinyl)amino)-2-(N-((5-thiazolyl)methoxycarbonyl)amino)-1,6-diphenyl-3-hydroxyhexane]
[2]
  IC50: 73 to 80 nM

## CC(C)c1nc(CN(C)C(=O)N[C@H](C(=O)N[C@@H](Cc2ccccc2)C[C@H](O)[C@H](Cc2ccccc2)NC(=O)OCc2cncs2)C(C)C)co1 [Example 18, (2S,3S,5S)-5-(N-(N-((N-Methyl-N-((2-isopropyl-4-oxazolyl)methyl)amino)carbonyl)valinyl)amino)-2-(N-((5-thiazolyl)methoxycarbonyl)amino)-1,6-diphenyl-3-hydroxyhexane]
[2]
  IC50: 39 to 46 nM

## CC(C)c1nc(CN(C(=O)N[C@@H](C)C(=O)N[C@@H](Cc2ccccc2)C[C@H](O)[C@H](Cc2ccccc2)NC(=O)OCc2cncs2)C2CC2)cs1 [Example 15, (2S,3S,5S)-5-(N-(N-((N-Cyclopropyl-N-((2-isopropyl-4-thiazolyl)methyl)amino)carbonyl)alaninyl)amino)-2-(N-((5-thiazolyl)methoxycarbonyl)amino)-1,6-diphenyl-3-hydroxyhexane]
[2]
  IC50: 430 to 670 nM

## CC(C)c1nc(CCOC(=O)N[C@H](C(=O)N[C@@H](Cc2ccccc2)C[C@H](O)[C@H](Cc2ccccc2)NC(=O)OCc2cncs2)C(C)C)cs1 [Example 47, (2S,3S,5S)-5-(N-(N-((2-(2-Isopropyl-4-thiazolyl)ethoxy)carbonyl)valinyl)amino)-2-(N-((5-thiazolyl)methoxycarbonyl)amino)-1,6-diphenyl-3-hydroxyhexane]
[2]
  IC50: 9 to 24 nM

## CC(C)c1nc(COC(=O)N[C@H](C(=O)N[C@@H](Cc2ccccc2)[C@@H](O)C[C@H](Cc2ccccc2)NC(=O)OCc2cncs2)C(C)C)cs1 [Example 6, (2S,3S,5S)-2-(N-(N-((2-Isopropyl-4-thiazolyl)methoxycarbonyl)valinyl)amino)-5-(N-((5-thiazolyl)methoxycarbonyl)amino)-1,6-diphenyl-3-hydroxyhexane]
[2]
  IC50: 6 to 14 nM

## CC(C)[C@H](NC(=O)OCc1csc(N(C)C)n1)C(=O)N[C@@H](Cc1ccccc1)[C@@H](O)C[C@H](Cc1ccccc1)NC(=O)OCc1cncs1 [Example 10, (2S,3S,5S)-2-(N-(N-((2-(N,N-Dimethylamino)-4-thiazolyl)methoxycarbonyl)valinyl)amino)-5-(N-((5-thiazolyl)methoxycarbonyl)amino)-1,6-diphenyl-3-hydroxyhexane]
[2]
  IC50: 54 to 71 nM

## CC(C)[C@H](NC(=O)OCc1csc(N2CCOCC2)n1)C(=O)N[C@@H](Cc1ccccc1)[C@@H](O)C[C@H](Cc1ccccc1)NC(=O)OCc1cncs1 [Example 12, (2S,3S,5S)-2-(N-(N-((2-(4-Morpholinyl)-4-thiazolyl)-methoxycarbonyl)valinyl)amino)-5-(N-((5-thiazolyl)-methoxycarbonyl)amino)-1,6-diphenyl-3-hydroxyhexane]
[2]
  IC50: 53 to 106 nM

## CC(C)CN(Cc1csc(C(C)C)n1)C(=O)N[C@@H](C)C(=O)N[C@@H](Cc1ccccc1)C[C@H](O)[C@H](Cc1ccccc1)NC(=O)OCc1cncs1 [Example 55]
[1]
  IC50: 140 to 220 nM

## CC(C)c1nc(CN(C)C(=O)N[C@H](C(=O)N[C@@H](Cc2ccccc2)C[C@H](O)[C@H](Cc2ccccc2)NC(=O)OCc2ccno2)C(C)C)cs1 [Example 26, (2S,3S,5S)-5-(N-(N-((N-Methyl-N-((2-isopropyl-4-thiazolyl)methyl)amino)carbonyl)valinyl)amino)-2-(N-((5-isoxazolyl)methoxycarbonyl)amino)-1,6-diphenyl-3-hydroxyhexane]
[2]
  IC50: 7 to 11 nM

## CCc1nc(CN(C)C(=O)N[C@H](C(=O)N[C@@H](Cc2ccccc2)C[C@H](O)[C@H](Cc2ccccc2)NC(=O)OCc2cncs2)C(C)C)cs1 [Example 53, (2S,3S,5S)-5-(N-(N-((N-Methyl-N-((2-ethyl-4-thiazolyl)methyl)amino)carbonyl)valinyl)amino)-2-(N-((5-thiazolyl)methoxycarbonyl)amino)-1,6-diphenyl-3-hydroxyhexane]
[2]
  IC50: 32 to 73 nM

## CC(C)[C@H](NC(=O)N(C)Cc1csc(C2CC2)n1)C(=O)N[C@@H](Cc1ccccc1)C[C@H](O)[C@H](Cc1ccccc1)NC(=O)OCc1cncs1 [Example 51]
[3]
  IC50: 45 to 49 nM

## CC(C)c1nc(CN(C)C(=O)N[C@H](C(=O)N[C@@H](Cc2ccccc2)C[C@H](O)[C@H](Cc2ccccc2)NC(=O)OCc2cnco2)C(C)C)cs1 [Example 20]
[3]
  IC50: 11 to 14 nM

## Cc1ncc(COC(=O)N[C@@H](Cc2ccccc2)[C@@H](O)C[C@H](Cc2ccccc2)NC(=O)[C@@H](NC(=O)N(C)Cc2csc(C(C)C)n2)C(C)C)s1 [Example 28, (2S,3S,5S)-5-(N-(N-((N-Methyl-N-((2-isopropyl-4-thiazolyl)methyl)amino)carbonyl)valinyl)amino)-2-(N-((2-methyl-5-thiazolyl)methoxycarbonyl)amino)-1,6-diphenyl-3-hydroxyhexane]
[2]
  IC50: 110 to 120 nM

## CC(C)c1nc(COC(=O)N[C@H](C(=O)N[C@@H](Cc2ccccc2)C[C@H](O)[C@H](Cc2ccccc2)NC(=O)OCc2cncs2)C(C)C)cs1 [Example 5, (2S,3S,5S)-5-(N-(N-((2-Isopropyl-4-thiazolyl)methoxycarbonyl)valinyl)amino)-2-(N-((5-thiazolyl)methoxycarbonyl)amino)-1,6-diphenyl-3-hydroxyhexane]
[2]
  IC50: 3 to 9 nM

## CC(C)c1nc(CN(C)C(=O)N[C@@H](C)C(=O)N[C@@H](Cc2ccccc2)C[C@H](O)[C@H](Cc2ccccc2)NC(=O)OCc2cncs2)co1 [Example 56, (2S,3S,5S)-5-(N-(N-((N-Methyl-N-((2-isopropyl-4-oxazolyl)methyl)amino)carbonyl)-L-alaninyl)amino)-2-(N-((5-thiazolyl)methoxycarbonyl)amino)-1,6-diphenyl-3-hydroxyhexane]
[2]
  IC50: 50 to 67 nM
